The text below walks through data of US20130079370A1, “Method for the Inhibition of Deubiquitinating Activity” (priority 2011, published 2013).

Molecules are shown by their SMILES. pIC50: −log10 of the molar value.

What all share (type): cell-based
One data set concerns HCT-116 cells. Kind of data set: DNA damage markers, immunoblot. Conditions: cell cycle arrest observed. On the procedure:
Treatment with b-AP15 increased their levels in a dose dependent manner without altering the levels of ornithine decarboxylase 1 (ODC1), an ubiquitin-independent proteasome substrate (8).
HCT-116 cells were treated with b-AP15 or doxorubicin (100 nM, as a positive control for genotoxic stress for 18 h) (FIG. 5). Cell lysates were immuno-blotted with antibodies for phosphorylated p53 and histone H2 Ax marker for DNA damage of for total levels of p53 and β-actin as loading controls.

The test system of another data set is HCT116 cells. Particulars: human. The source says:
These findings indicate that high molecular weight ubiquitin substrate complexes accumulating as a result of DUB inhibition can generate strong cytotoxicity that is insensitive to Bcl-2 over-expression. [table]

Data set [1] relates to proteasome reporter cell line MelJuSo Ub-YFP (UbG76V-YFP). Put plainly: Ub-YFP proteasome reporter cell line, accumulation of reporter. Particulars: Homo sapiens, MEL-JUSO; immunoblotting and flow cytometry; read-out: IC50, dose dependent accumulation of the Ub-YFP reporter. As for the experimental part: b-AP15 blocks cellular proteasome function, as confirmed by use of a reporter cell line, which expresses ubiquitin tagged to yellow fluorescent protein (UbG76V-YFP) constitutively targeted for proteasomal degradation (12). […] Since inhibition of proteasome function is characterized by defects in ubiquitin turnover (13) colon carcinoma HCT116 cells were treated with b-AP15 and the level of ubiqutin conjugation analyzed by immunoblotting. […] The increase in polyubiquitin is associated with a strong proteotoxic response characterized by induction of HSPA6 (Hsp70B′), HSPA1B and DNAJB1 (Hsp40).
MCF7 cells were maintained in MEM/10% fetal calf serum. HCT-116 p53+/+, p53−/−, Bcl-2+/+, PUMA−/− and BAX−/− cells were maintained in McCoy's 5A modified medium/10% fetal calf serum. The HCT-116 p53+/+, p53−/−, PUMA−/− and BAX−/− were generated as described (36). The HCT-116 Bcl-2+/+ cell line was generated by transfecting parental HCT-116 p53+/+ cells with pCEP4 Bcl-2 (Addgene plasmid 16461) (37) and isolating high expression clones. […]
b-AP15 inhibits degradation of ubiquitin-tagged YFP in a proteasome reporter cell line (FIG. 1a). Levels of ^UbG76V-YFP accumulation were determined by flow cytometry and immunoblotting; immunoblot of ubiquitin conjugation in HCT-116 cells treated with b-AP15 (1 μM) or bortezomib (100 nM) (FIG. 1b). […]

As to `C=CC(=O)N1C/C(=C\c2ccc([N+](=O)[O-])cc2)C(=O)/C(=C/c2ccc([N+](=O)[O-])cc2)C1` [b-AP15, (3E,5E)-3,5-bis[(4-nitrophenyl)methylidene]-1-(prop-2-enoyl)piperidin-4-one], the “DNA damage markers phosphorylated p53 (Ser 15), H2AX (Ser 139)” value in the data set with HCT-116 cells was “not associated with increased levels of DNA damage markers”. Further, in the data set on HCT116 cells, the “Fold induction DNAJB1 (Hsp40B1)” value is recorded as 22 fold and the “Fold induction HSPA1B” value was determined as 21 fold. In addition, the pIC50 in data set [1] was 6.10.
